In patent publication US9475789B2, “Use of polyenylpyrrole derivatives for treating inflammation” (WELLHEAD BIOLOGICAL TECHNOLOGY CORP., priority 2014, dated 2016):
“Also recorded” adds a separate entry of the source.

Columns and labels:
[1] = test system: IL-6; assay: IL-6 ELISA, RAW 264.7 macrophages; format: cell-based, murine
Protocol: (§1) The effects of tested samples on IL-1β, TNF-α and IL-6 production were measured by ELISA according to the manufacturer's instruction. In brief, 50 μl of biotinylated antibody reagent and 50 μl of supernatant were added to an anti-mouse IL-1β, TNF-α and IL-6 precoated stripwell plate, and incubated at room temperature for 2 h. After washing the plate three times with washing buffer, 100 μl of diluted streptavidin-HRP concentrate was added to each well and incubated at room temperature for 30 min. The washing process was repeated; then 100 μl of a premixed tetramethylbenzidine substrate solution was added to each well and developed at room temperature in the dark for 30 min. Following the addition of 100 μl of stop solution to each well to stop the reaction, the absorbance of the plate was measured by a microplate reader at 450 nm wavelength.

[2] = test system: NF-κB p65; assay: NF-κB p65 nuclear translocation ELISA, J774A.1 macrophages; format: cell-based, murine; settings: compound 1h 10-40 μM, LPS 20 min
Protocol: (A) RAW 264.7 macrophages (5×10^5/ml) or (B) J774A.1 macrophages (5×10^5/ml) were incubated with compound 1h or DMSO for 30 min followed by LPS (1 μg/ml) stimulating for 20 min, then the phosphorylation levels of IKK-α and IκB-α and total IκB-α protein level were analyzed by Western blot. (C) RAW 264.7 macrophages (5×10^5/ml) or (D) J774A.1 macrophages (5×10^5/ml) were incubated with compound 1h (10-40 μM) or DMSO for 30 min followed by LPS (1 μg/ml) stimulating for 20 min, then the nuclear translocation of NF-κB were analyzed by ELISA. (E) RAW-Blue™ cells (5×10^5/ml) were incubated with compound 1h (2.5-40 μM) or DMSO for 30 min followed by LPS (1 μg/ml) stimulating for 24 h, then the SEAP activity was measured by QUANTI-Blue™. […] In (C), (D), and (E), the data are expressed as the mean±SD for three separate experiments. *, **, and *** indicate a significant difference at the level of p<0.05, p<0.01, and p<0.001 respectively compared to LPS group.
Nuclear protein from RAW 264.7 and J774A.1 cells were extracted using a Nuclear Extract Kit (Active Motif) according to the manufacturer's instructions and nuclear NF-κB p65 activation quantified using an ELISA-based TransAM NF-κB kit (Active Motif, Tokyo, Japan) according to the manufacturer's protocol by reading the absorbance with a microplate absorbance reader (Bio-Rad Laboratories, Inc) at 450 nm with a reference wavelength of 655 nm.

[3] = test system: ERK1/2, JNK1/2, p38; assay: Western blot of MAPK phosphorylation, LPS-activated J774A.1 macrophages; format: cell-based, murine; settings: LPS-activated J774A.1, LPS 20 min
Protocol: In (A), RAW 264.7 macrophages (5×10^5/ml) were incubated with compound 1h (20 μM), N-acetyl cysteine (NAC; 10 mM) or DMSO (vehicle) for 30 min followed by LPS (1 μg/ml) stimulating for the indicated time, then ROS levels were measured by detection of the fluorescence intensity of the fluorophore carboxyl-DCF and expressed relative to those at time zero. In (B), RAW 264.7 macrophages (5×10^5/ml) were incubated with compound 1h (20 μM) or DMSO for 30 min followed by LPS (1 μg/ml) stimulating for 0-60 min, then the phosphorylation levels of ERK1/2, JNK1/2, p38 were analyzed by Western blot. In (C), J774A.1 macrophages (5×10^5/ml) were incubated with compound 1h or DMSO for 30 min followed by LPS (1 μg/ml) stimulating for 20 min, then the phosphorylation levels of ERK1/2, JNK1/2, p38 were analyzed by Western blot.
Whole cell lysates were separated by SDS-PAGE and electrotransferred to a PVDF membrane. The membranes were incubated in blocking solution—5% nonfat milk in phosphate buffered saline with 0.1% Tween 20—at room temperature for 1 h. Each membrane was incubated with a specific primary antibody at room temperature for 2 h. After washing three times in PBS with 0.1% Tween 20, the membrane was incubated with an HRP-conjugated secondary antibody directed against the primary antibody. The membrane was developed by an enhanced chemiluminescence Western blot detection system.

[4] = test system: IL-6; assay: IL-6 ELISA, LPS-activated peritoneal macrophages; format: cell-based, C57BL/6 mice; settings: LPS 1 μg/ml 24 h
Protocol: (A) J774A.1 macrophages (4×10^5/ml), (B) peritoneal macrophages (4×10^5/ml), and (C) JAWSII dendritic cells (4×10^5/ml) were incubated with compound 1h or DMSO for 30 min followed by stimulating with LPS (1 μg/ml) for 24 h, then IL-6 and TNF-α concentration in culture medium were assayed by ELISA. The data are expressed as the mean±SD for three separate experiments. *, **, and *** indicate a significant difference at the level of p<0.05, p<0.01, p<0.001 respectively compared to LPS group.
as §1

[5] = test system: caspase-1; assay: Western blot of active caspase-1 (p10), LPS+ATP-activated J774A.1 macrophages; format: cell-based, mouse
Protocol: (A) J774A.1 macrophages (1×10^6/ml) and (B) peritoneal macrophages (1×10^5/ml) were incubated with compound 1h for 30 min followed by LPS (1 μg/ml) stimulating for 5.5 h, then the cells were stimulated with ATP (5 mM) for an additional 30 min. The IL-1β in the culture medium was measured by ELISA and the expression of active caspase-1 (p10) was measured by Western blot. In (C) and (D), J774A.1 macrophages (1×10^6/ml) were incubated with LPS (1 μg/ml) for 5.5 h, then cells were incubated with compound 1h for 30 min followed by stimulating with ATP (5 mM) for an additional 30 min. The IL-1β and IL-6 in the culture medium were measured by ELISA and the expression of active caspase-1 (p10) was measured by Western blot. In (E), J774A.1 macrophages (1×10^6/ml) were incubated with compound 1h for 30 min followed by LPS (1 μg/ml) stimulating for 6 h. The expression of NLRP3 and proIL-1β were measured by Western blot.
Whole cell lysates were separated by SDS-PAGE and electrotransferred to a PVDF membrane. The membranes were incubated in blocking solution—5% nonfat milk in phosphate buffered saline with 0.1% Tween 20—at room temperature for 1 h. Each membrane was incubated with a specific primary antibody at room temperature for 2 h. After washing three times in PBS with 0.1% Tween 20, the membrane was incubated with an HRP-conjugated secondary antibody directed against the primary antibody. […]

Compound: O=c1cc(O)cc(/C=C/C=C/C=C/C=C/c2[nH]ccc2Cl)o1 [Compound 1h]
- relative potency in decreasing IL-6 secretion ([1]; LPS-activated RAW 264.7): more potent than 1i and 1n
- secretion of IL-6 ([1]; LPS-activated RAW 264.7, LPS 1 μg/ml 24 h): decreased production; also recorded: decreased the secretion of IL-6 by LPS-activated RAW 264.7 macrophages in a dose-dependent manner
- background level of IL-6 ([1]; compound alone, no LPS, data not shown): did not alter
- NF-κB nuclear translocation [2]: inhibited NF-κB nuclear translocation
- phosphorylation levels of ERK1/2, JNK1/2, p38 [3]: confirmed
- secretion of IL-6 [4]: reduced
- caspase-1 activation ([5]; J774A.1, compound before LPS and ATP treatment): significantly inhibited
- caspase-1 activation ([5]; LPS-primed J774A.1, compound 30 min before ATP stimulation): not caspase-1 activation
